We go through 2 compounds from patent US20050281889A1, “Nutritional supplement for adults” (priority 2004, published 2005).

Molecules are shown by their SMILES.

The conditions of series [1]: in vivo; cited from earlier work.
Another series deals with blood lymphocytes. In words: Zinc dose response: lymphocyte response to mitogen PHA (thymidine uptake, 72 h culture). In kind it is in vivo, human. The conditions noted are these: for Lymphocyte response to PHA (stimulation index): adults, age 20-50 years. On the procedure:
The basic concept underlying the assessment of the most optimum nutrient amounts for a given age group uses the principle of “dose-response graphs”. At least four groups of individuals were provided with various amounts of a given nutrient and their immune responses were measured using established and accepted techniques. The amount of a nutrient that gave the best response was considered the optimum amount. Dose response graphs were determined for all vitamins and trace elements considered essential for human health, particularly immunity.
Data for the dose response chart for zinc in a group of 20 to 50 year old adults is shown in FIG. 1, with the total amount of zinc taken is shown for each group. To determine the magnitude of immune response, an aliquot of blood was withdrawn from each subject in the study, blood lymphocytes were separated, washed and mixed with the mitogen phytohemagglutinin (PHA) in previously determined optimum amount. The optimum amount of PHA used in the experiments was predetermined by a set of dose response graphs using lymphocytes of a healthy donor and four different concentrations of PHA. After culture in a sterile environment for 72 hours, the cells were washed and mixed with radioactive thymidine. The same steps were undertaken in a control sample in which only the culture medium was used, not PHA. The cells were washed and radioactivity determined.
Dietary intake of zinc was calculated based on three 24-hour recalls and by the food frequency questionnaire methods.

Take `Cc1ncc(C[n+]2csc(CCO)c2C)c(N)n1` [Thiamin]: in series [1], the “biologic half-life in the body” value is listed as “about 15 days”.

Regarding `[Zn]` [zinc], the immune response entry in the series with blood lymphocytes (12 mg of zinc intake, in combination with zinc from a balanced diet) is “best immune response”. In addition, the results for the “Lymphocyte response to PHA (stimulation index)” value in the series on blood lymphocytes (supplemental zinc 12 mg), with blood lymphocytes (supplemental zinc 25 mg) and in the series on blood lymphocytes (supplemental zinc 50 mg) were 78, 48 and 41, respectively.
